Laboratory results reported in patent US7510845B2, “Assay employing G protein-coupled receptor expressed in dorsal root ganglia” (California Institute of Technology, priority 2000, dated 2009).
“Also recorded” adds a separate entry of the source. One block for each molecule: values may come before it. Ends that are not written are not given here.

Legend:
MAS1 = assay: Intracellular Ca2+ release assay (Fura-2), MAS1 in HEK-Gα15 cells; assay type: cell-based; settings: for Activation of MAS1: HEK-Gα15 cells
MRGA1 [1] = molecular target: T1, MRGA1 (Mus musculus, UniProt Q91WW5); assay: Intracellular Ca2+ release assay (Fura-2), MRGA1-GFP in HEK-Gα15 cells; assay type: cell-based; settings: for Calcium response of MRGA1-expressing cells to ligand: HEK-Gα15 cells, ligand 1 μM; for Activation of MrgA1 in dose-response experiments: HEK cells expressing Gα15
T1 construct: cDNAs encoding eight full-length variants of Mrg receptors (mMrgA1-8) are provided; expressed in transfected cells; host or cells: HEK293-Galpha15 (A1) or HEK293 lacking Galpha15 (A4), transient transfection with FuGENE 6
T1 sequence (Q91WW5 1-304): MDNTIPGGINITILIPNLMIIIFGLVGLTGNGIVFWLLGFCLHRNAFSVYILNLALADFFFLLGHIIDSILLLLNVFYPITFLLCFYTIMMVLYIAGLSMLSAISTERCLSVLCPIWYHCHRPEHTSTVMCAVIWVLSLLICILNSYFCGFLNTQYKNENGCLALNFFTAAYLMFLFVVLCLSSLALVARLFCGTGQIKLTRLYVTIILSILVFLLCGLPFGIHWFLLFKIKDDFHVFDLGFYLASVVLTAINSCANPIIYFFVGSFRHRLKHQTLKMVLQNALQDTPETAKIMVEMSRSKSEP
Procedure: (§1) To identify ligands for the Mrg receptors, selected MrgA genes were tested in a calcium release assay. MrgA genes, including MrgA1 and MrgA4, were cloned into a eukaryotic expression vector and transfected into human embryonic kidney (HEK) 293 cells. HEK-293 cells were obtained from the ATCC and cultured in DMEM supplemented with 10% fetal bovine serum. An HEK293-Gα15 cell line stably expressing Gα15 was provided by Aurora Biosciences Corporation and grown on Matrigel™ (growth factor reduced Matrigel, Becton Dickinson, diluted 1:200 with serum-free DMEM)-coated flasks and maintained at 37° C. in DMEM (GibcoBRL) supplemented with 10% heat-inactivated fetal bovine serum, 2 mM L-glutamine, 0.1 mM non-essential amino acids, 1 mM sodium pyruvate, 25 mM HEPES and 3 μg/ml blastcidin-S. For transfection, cells were seeded on Matrigel-coated 35 mm glass-bottom dishes (Bioptech Inc., Butler, Pa.). After 16-24 hr, cells were transfected using FuGENE 6 (Roche).
(§2) To increase the sensitivity of the calcium release assay, in some experiments the MRGA-GFP fusion proteins were expressed in HEK 293 cells modified to express Gα15, which couples GPCRs to a signal transduction pathway leading to the release of intracellular free Ca^2+ (Offermann and Simon J Biol Chem 270: 15175-80 (1995)). This calcium release can be monitored ratiometrically using Fura-2 as a fluorescent indicator dye (Tsien et al. Cell Calcium 6: 145-57 (1985)) (FIGS. 11A-C). This heterologous expression system has been previously used to identify ligands for taste receptors (Chandrashekar et al. Cell 100: 703-11 (2000)).
(§3) Briefly, transfected cells were washed once in Hank's balanced salt solution with 11 mM D-glucose and 10 mM HEPES, pH 7.4 (assay buffer) and loaded with 2 μM Fura-2 AM (Molecular Probes) at room temperature for 90 min, with rotation. Loaded cells were washed twice with assay buffer and placed on a micro-perfusion chamber (Bioptech). The chamber was mounted on top of a Olympus IMT2 inverted microscope, and imaged with an Olympus DPlanApo 40× oil immersion objective lens. Samples were illuminated by a 75 W xenon bulb, and a computer-controlled filter changer (Lambda-10; Shutter Instruments) was used to switch the excitation wavelength. A cooled CCD camera (Photometric) was used in detecting fluorescence. GFP-positive cells within a field were identified using an excitation wavelength of 400 nm, a dichroic 505 nm long-pass filter and an emitter bandpass of 535 nm (Chroma Technology). In the same field, calcium measurements were performed at an excitation wavelength of 340 nm and 380 nm, and an emission wavelength of 510 nm. Agonists were diluted in assay buffer and solution changes accomplished by micro-perfusion pump (Bioptech). Fura-2 fluorescence signals (340 nm, 380 nm and the 340/380 ratio) originating from GFP-positive cells were continuously monitored at 0.4- or 1-second intervals and collected using Axon Imaging Workbench 4.0 software (Axon). Instrument calibration was carried out with standard calcium solutions (Molecular probes) in glass bottom dishes (MatTek Corp.).

MRGA1 [2] = molecular target: T1, MRGA1; assay: Intracellular Ca2+ release assay, MRGA1 in HEK cells lacking Gα15; assay type: cell-based; settings: ligand 1 μM
Procedure: as §1, with “(Roche). Transfection efficiencies were estimated by visualization of GFP fused to the C-terminus of MrgA1 and A4, and were typically >60%. Fusing GFP to the C-termini of the MrgA coding sequences additionally allowed for visual confirmation of the intracellular distribution of the receptors and their membrane integration in the transfected cells (FIG. 11D).” for “(Roche).”
as §3, with “Corp.). […]” for “Corp.).”

MRGA4 [3] = molecular target: T2, MRGA4 (Mus musculus, UniProt Q91WW2, A204G); assay: Intracellular Ca2+ release assay, MRGA4 in HEK cells lacking Gα15; assay type: cell-based; settings: ligand 1 μM
T2 construct: cDNAs encoding eight full-length variants of Mrg receptors (mMrgA1-8) are provided; expressed in transfected cells; host or cells: HEK293-Galpha15 (A2) or HEK293 lacking Galpha15 (A5), transient transfection with FuGENE 6
T2 sequence (Q91WW2 9-313 A204G limits assumed): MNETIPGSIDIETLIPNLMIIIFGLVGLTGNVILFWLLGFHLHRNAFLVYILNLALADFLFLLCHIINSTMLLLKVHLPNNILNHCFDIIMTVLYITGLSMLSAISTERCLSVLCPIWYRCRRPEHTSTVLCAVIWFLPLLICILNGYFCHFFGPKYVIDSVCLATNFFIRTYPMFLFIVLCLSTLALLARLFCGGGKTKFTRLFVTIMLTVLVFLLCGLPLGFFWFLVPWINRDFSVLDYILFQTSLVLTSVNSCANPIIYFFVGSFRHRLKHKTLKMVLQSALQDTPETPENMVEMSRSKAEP
Procedure: as §1, with “(Roche). Transfection efficiencies were estimated by visualization of GFP fused to the C-terminus of MrgA1 and A4, and were typically >60%. Fusing GFP to the C-termini of the MrgA coding sequences additionally allowed for visual confirmation of the intracellular distribution of the receptors and their membrane integration in the transfected cells (FIG. 11D).” for “(Roche).”
as §3, with “Corp.). […]” for “Corp.).”

[4] = test system: chronic pain models, including neuropathic pain; settings: intrathecal injection; several chronic pain models; cited from earlier work
MRGA4 [5] = molecular target: T2, MRGA4; assay: Intracellular Ca2+ release assay (Fura-2), MRGA4-GFP in HEK-Gα15 cells; assay type: cell-based; settings: HEK cells expressing Gα15
Procedure: To identify ligands for the Mrg receptors, selected MrgA genes were tested in a calcium release assay. MrgA genes, including MrgA1 and MrgA4, were cloned into a eukaryotic expression vector and transfected into human embryonic kidney (HEK) 293 cells. HEK-293 cells were obtained from the ATCC and cultured in DMEM supplemented with 10% fetal bovine serum. […]
as §2, with “This heterologous expression system has been previously used to identify ligands for taste receptors (Chandrashekar et al. Cell 100: 703-11 (2000)).” left out
Briefly, transfected cells were washed once in Hank's balanced salt solution with 11 mM D-glucose and 10 mM HEPES, pH 7.4 (assay buffer) and loaded with 2 μM Fura-2 AM (Molecular Probes) at room temperature for 90 min, with rotation. […] A cooled CCD camera (Photometric) was used in detecting fluorescence. […] Fura-2 fluorescence signals (340 nm, 380 nm and the 340/380 ratio) originating from GFP-positive cells were continuously monitored at 0.4- or 1-second intervals and collected using Axon Imaging Workbench 4.0 software (Axon). […]

Molecule: Angiotensin II: peptide hormone previously reported to activate MAS1 (DRVYIHPF; Angiotensin-2; UniProt P01019 25-32, looked up)
Activation of MAS1 (MAS1): No response was detected

Molecule: AGEGLNSQFWSLAAPQRF-NH2 [NPAF]
Activation of MrgA1 in dose-response experiments (MRGA1 [1]): much less effective | Calcium response of MRGA1-expressing cells to ligand (MRGA1 [1]): significantly lower | EC50 (MAS1; HEK cells, RF-amide ligands, read-out: Relative efficacy of activation of MAS1): > 1000 nM | Activation of MAS1 (MAS1): did not respond well | Calcium response of MRGA1-expressing cells to ligand (MRGA1 [2]): no response | Calcium response of MRGA4-expressing cells to ligand (MRGA4 [3]): respond | Antinociceptive effect [4]: long-lasting antinociceptive effects

Molecule: RFRP-2: RFamide ligand produced from a different precursor (SAGATANLPLRS; ends and bridges not checked; UniProt Q9HCQ7 101-112, looked up)
Activation of MrgA1 in dose-response experiments (MRGA1 [1]): Neither receptor showed strong activation | Activation of MrgA4 in dose-response experiments (MRGA4 [5]): Neither receptor showed strong activation

Molecule: NPY: neuropeptide
Calcium response of MRGA1-expressing cells to ligand (MRGA1 [1]): some level of activation; also recorded: strongest responses | Calcium response of MRGA1-expressing cells to ligand (MRGA1 [2]): lost completely | Calcium response of MRGA4-expressing cells to ligand (MRGA4 [3]): lost completely

Molecule: RFRP-1: RFamide ligand produced from a different precursor (MPHSFANLPLRF; ends and bridges not checked; UniProt Q9HCQ7 81-92, looked up)
Activation of MrgA1 in dose-response experiments (MRGA1 [1]): Neither receptor showed strong activation | Activation of MrgA4 in dose-response experiments (MRGA4 [5]): Neither receptor showed strong activation

Molecule: Angiotensin I: peptide hormone previously reported to activate MAS1 (DRVYIHPFHL; Angiotensin-1; UniProt P01019 25-34, looked up)
Activation of MAS1 (MAS1): No response was detected

More lines, main results first:

Calcium response of MRGA1-expressing cells to ligand (MRGA1 [2]): considerably diminished | Calcium response of MRGA4-expressing cells to ligand (MRGA4 [3]): considerably diminished
Molecule: SYSMEHFRWGKPVGKKRRPVKVYPNGAEDESAEAFPLEF [ACTH]
Calcium response of MRGA1-expressing cells to ligand (MRGA1 [1]): some level of activation; also recorded: strongest responses | Activation of MAS1 (MAS1): Nor did MAS1 respond

Calcium response of MRGA1-expressing cells to ligand (MRGA1 [1]): did not activate
Molecule: neurokinin A: peptide hormone

Calcium response of MRGA1-expressing cells to ligand (MRGA1 [1]): did not activate
Molecule: neurokinin B: peptide hormone

Calcium response of MRGA1-expressing cells to ligand (MRGA1 [1]): weakly activated
Molecule: schistoFLRF: RFamide ligand, SEQ ID NO: 115 (PDVDHVFLRF; ends and bridges not checked)

Calcium response of MRGA1-expressing cells to ligand (MRGA1 [1]): only very weakly activated
Molecule: CCCCC/C=C\C/C=C\C/C=C\C/C=C\CCCC(=O)O [Arachidonic Acid]

Calcium response of MRGA1-expressing cells to ligand (MRGA1 [1]): most efficient responses | Calcium response of MRGA1-expressing cells to ligand (MRGA1 [1]; listed as FMRF): strongest responses
Molecule: Phe-Met-Arg-Phe-amide [FMRFamide]

Calcium response of MRGA1-expressing cells to ligand (MRGA1 [2]): considerably diminished | Calcium response of MRGA4-expressing cells to ligand (MRGA4 [3]): considerably diminished
Molecule: CGRP-II: neuropeptide, calcitonin gene-related peptide
Calcium response of MRGA1-expressing cells to ligand (MRGA1 [1]): some level of activation; also recorded: strongest responses

Calcium response of MRGA1-expressing cells to ligand (MRGA1 [1]): only very weakly activated
Molecule: CCCCC[C@H](O)/C=C/[C@H]1[C@H](O)CC(=O)[C@@H]1CCCCCCC(=O)O [Prostaglandin-E1]
